From patent publication US5783689A, “Antibacterial and antifungal nucleosides” (University of Notre Dame, priority 1996, dated 1998)
Converted amounts (≈) assume the structure as drawn. Where two headings read alike, the source gives them in different places. Where a SMILES comes first, the peptide text is derived from it. [ ]: non-standard residue; d: D form. The star is where a group is joined. X1 = O=c1[nH]c(=O)n([C@@H]2O[C@H](CO*)[C@@H](O)[C@H]2O)cc1F; Orn(N5-OH,N5-Ac) = CC(=O)N(O)CCC[C@H](N)C(=O)O

How the values were obtained:
Format in all cases: cell-based
E. Coli EC14 = assay: MIC by agar dilution method; conditions: Escherichia coli, read-out: Minimum Inhibitory Concentration
Excerpt: (§1) The following Table 3 lists the minimum inhibitory concentrations obtained by the agar dilution method against Gram-positive and Gram-negative organisms with 5'-O-(valinyl)-5-fluorouridine and comparators ampicillin and 5-FC.

E. Coli TEM = assay: MIC by agar dilution method; conditions: Escherichia coli, read-out: Minimum Inhibitory Concentration
Excerpt: as §1

[1] = test system: Enterobacter aerogenes C32; assay: MIC by agar dilution method; conditions: Klebsiella aerogenes, read-out: Minimum Inhibitory Concentration
Excerpt: as §1

[2] = test system: Enterobacter aerogenes EB17; assay: MIC by agar dilution method; conditions: Klebsiella aerogenes, read-out: Minimum Inhibitory Concentration
Excerpt: as §1

Enterobacter cloacae EB5 = assay: MIC by agar dilution method; conditions: read-out: Minimum Inhibitory Concentration
Excerpt: as §1

Enterococcus D 2041 = assay: MIC by agar dilution method; conditions: D2041, read-out: Minimum Inhibitory Concentration
Excerpt: as §1

Enterococcus D X66 = assay: MIC by agar dilution method
Excerpt: as §1

Klebsiella X26 = assay: MIC by agar dilution method; conditions: read-out: Minimum Inhibitory Concentration
Excerpt: as §1

Morganella morganii PR15 = assay: MIC by agar dilution method; conditions: read-out: Minimum Inhibitory Concentration
Excerpt: as §1

Proteus rett. C24 = assay: MIC by agar dilution method; conditions: read-out: Minimum Inhibitory Concentration
Excerpt: as §1

Proteus stu PR33 = assay: MIC by agar dilution method; conditions: read-out: Minimum Inhibitory Concentration
Excerpt: as §1

Pseudomonas PS19 = assay: MIC by agar dilution method
Excerpt: as §1

Salmonella 1335 = assay: MIC by agar dilution method; conditions: read-out: Minimum Inhibitory Concentration
Excerpt: as §1

Salmonella X514 = assay: MIC by agar dilution method; conditions: read-out: Minimum Inhibitory Concentration
Excerpt: as §1

Serratia SE3 = assay: MIC by agar dilution method; conditions: read-out: Minimum Inhibitory Concentration
Excerpt: as §1

Serratia X99 = assay: MIC by agar dilution method; conditions: read-out: Minimum Inhibitory Concentration
Excerpt: as §1

Shigella sonnei N9 = assay: MIC by agar dilution method; conditions: N9, read-out: Minimum Inhibitory Concentration
Excerpt: as §1

[3] = test system: Staphylococcus aureus S13E; assay: MIC by agar dilution method; conditions: read-out: Minimum Inhibitory Concentration
Excerpt: as §1

[4] = test system: Staphylococcus aureus V 41; assay: MIC by agar dilution method; conditions: V41, read-out: Minimum Inhibitory Concentration
Excerpt: as §1

[5] = test system: Staphylococcus aureus X 1.1; assay: MIC by agar dilution method; conditions: X1.1, read-out: Minimum Inhibitory Concentration
Excerpt: as §1

[6] = test system: Staphylococcus aureus X 400; assay: MIC by agar dilution method
Excerpt: as §1

[7] = test system: Staphylococcus epidermis 222; assay: MIC by agar dilution method; conditions: read-out: Minimum Inhibitory Concentration
Excerpt: as §1

[8] = test system: Staphylococcus epidermis 70; assay: MIC by agar dilution method; conditions: read-out: Minimum Inhibitory Concentration
Excerpt: as §1

Streptococcus pn PARK = assay: MIC by agar dilution method; conditions: read-out: Minimum Inhibitory Concentration
Excerpt: as §1

Streptococcus A C203 = assay: MIC by agar dilution method; set-up: key: NG: no growth
Excerpt: as §1

[9] = test system: Gram-positive bacteria including the methicillin resistant staphylococci; assay: in vitro growth inhibition of Gram-positive bacteria including methicillin resistant staphylococci
Excerpt: as §1

[10] = test system: Gram-negative microorganisms; assay: activity against Gram-negative microorganisms; conditions: compared with Gram-positive bacteria
Excerpt: as §1

Candida albicans = assay: in vitro test against Candida albicans, zone of inhibition, Lee's medium; conditions: 37° C.
Excerpt: The test compound of Table 3,5'-O-(valinyl)-5-fluorouridine, was coupled to the triornithyl peptide represented by the formula 2 wherein p is 3 by following the reaction Scheme 1 above and substituting valine for glycine to provide the tetrapeptide of the invention. […] Lee, K. L.; Buckley, H. R.; Campbell, C. C., Saubouraudia, 1975, 13, 148. The tetrapeptide gave a 35 mm diameter zone of inhibition at a concentration of the compound of 25 nmol. while at a concentration of 5 nmol. the zone of inhibition was 26 mm.

[11] = Pseudomonas PS19, agar dilution, read-out: Minimum Inhibitory Concentration
[12] = DX66, Enterococcus D X66, agar dilution, read-out: Minimum Inhibitory Concentration
[13] = X400, Staphylococcus aureus X 400, agar dilution, read-out: Minimum Inhibitory Concentration

Question: With `CC1(C)S[C@@H]2[C@H](NC(=O)[C@H](N)c3ccccc3)C(=O)N2[C@H]1C(=O)O` [Ampicillin] as the compound, how does the MIC (E. Coli EC14; E. Coli EC14, agar dilution) read?
Answer: 0.06 µg/mL (≈ 0.172 µM)

Question: What about the MIC (E. Coli TEM) of the same compound?
Answer: 0.03 µg/mL (≈ 0.0859 µM)

Question: And the MIC [1]?
Answer: 0.5 µg/mL (≈ 1.43 µM)

Question: And the MIC [2]?
Answer: 0.06 µg/mL (≈ 0.172 µM)

Question: What about the MIC (Enterobacter cloacae EB5) of the same compound?
Answer: 0.25 µg/mL (≈ 0.715 µM)

Question: What about the MIC (Enterococcus D 2041) of the same compound?
Answer: 1 µg/mL (≈ 2.86 µM)

Question: What about the MIC (Enterococcus D X66; Enterococcus, DX66, read-out: Minimum Inhibitory Concentration) of the same compound?
Answer: 128 µg/mL (≈ 366 µM)

Question: What about the MIC (Klebsiella X26) of the same compound?
Answer: 0.008 µg/mL (≈ 0.0229 µM)

Question: What about the MIC (Morganella morganii PR15) of the same compound?
Answer: 1 µg/mL (≈ 2.86 µM)

Question: What about the MIC (Proteus rett. C24) of the same compound?
Answer: 0.06 µg/mL (≈ 0.172 µM)

Question: And the MIC (Proteus stu PR33)?
Answer: 0.06 µg/mL (≈ 0.172 µM)

Question: What about the MIC (Pseudomonas PS19; [11]) of the same compound?
Answer: 32 µg/mL (≈ 91.6 µM)

Question: What about the MIC (Salmonella 1335) of the same compound?
Answer: 0.125 µg/mL (≈ 0.358 µM)

Question: What about the MIC (Salmonella X514) of the same compound?
Answer: 0.06 µg/mL (≈ 0.172 µM)

Question: What about the MIC (Serratia SE3) of the same compound?
Answer: 0.5 µg/mL (≈ 1.43 µM)

Question: What about the MIC (Serratia X99) of the same compound?
Answer: 0.25 µg/mL (≈ 0.715 µM)

Question: And the MIC (Shigella sonnei N9)?
Answer: 0.6 µg/mL (≈ 1.72 µM)

Question: And the MIC [3]?
Answer: 128 µg/mL (≈ 366 µM)

Question: What about the MIC [4] of the same compound?
Answer: 4 µg/mL (≈ 11.4 µM)

Question: And the MIC [5]?
Answer: 2 µg/mL (≈ 5.72 µM)

Question: And the MIC ([6]; Staphylococcus aureus, X400, read-out: Minimum Inhibitory Concentration)?
Answer: 128 µg/mL (≈ 366 µM)

Question: What about the MIC [7] of the same compound?
Answer: 2 µg/mL (≈ 5.72 µM)

Question: What about the MIC [8] of the same compound?
Answer: 8 µg/mL (≈ 22.9 µM)

Question: `Nc1nc(=O)n([C@@H]2O[C@H](CO)[C@@H](O)[C@H]2O)cc1F` [Example 5-FC, 5-fluorocytidine] was tested. Which MIC (E. Coli EC14) did it give?
Answer: > 128 µg/mL

Question: What about the MIC (Enterococcus D 2041) of the same compound?
Answer: 4 µg/mL (≈ 15.3 µM)

Question: And the MIC (Enterococcus D X66; [12])?
Answer: 0.25 µg/mL (≈ 0.957 µM)

Question: And the MIC (Pseudomonas PS19; Pseudomonas, PS19, read-out: Minimum Inhibitory Concentration)?
Answer: > 128 µg/mL

Question: What about the MIC [3] of the same compound?
Answer: 2 µg/mL (≈ 7.66 µM)

Question: What about the MIC [4] of the same compound?
Answer: 8 µg/mL (≈ 30.6 µM)

Question: What about the MIC [5] of the same compound?
Answer: 8 µg/mL (≈ 30.6 µM)

Question: And the MIC [6, 13]?
Answer: 8 µg/mL (≈ 30.6 µM)

Question: What about the MIC [7] of the same compound?
Answer: 16 µg/mL (≈ 61.3 µM)

Question: What about the MIC [8] of the same compound?
Answer: 16 µg/mL (≈ 61.3 µM)

Question: How did the MIC (E. Coli EC14; E. Coli EC14, agar dilution) turn out when `CC(C)[C@H](N)C(=O)OC[C@H]1O[C@@H](n2cc(F)c(=O)[nH]c2=O)[C@H](O)[C@@H]1O` [Test Compd, 5'-O-(L-valinyl)-5-fluorouridine] was run?
Answer: 128 µg/mL (≈ 354 µM)

Question: What about the MIC (E. Coli TEM) of the same compound?
Answer: 16 µg/mL (≈ 44.3 µM)

Question: And the MIC [1]?
Answer: 64 µg/mL (≈ 177 µM)

Question: And the MIC [2]?
Answer: 64 µg/mL (≈ 177 µM)

Question: What about the MIC (Enterobacter cloacae EB5) of the same compound?
Answer: 32 µg/mL (≈ 88.6 µM)

Question: And the MIC (Enterococcus D 2041)?
Answer: 2 µg/mL (≈ 5.54 µM)

Question: What about the MIC (Enterococcus D X66; [12]) of the same compound?
Answer: 32 µg/mL (≈ 88.6 µM)

Question: And the MIC (Klebsiella X26)?
Answer: 32 µg/mL (≈ 88.6 µM)

Question: And the MIC (Morganella morganii PR15)?
Answer: 8 µg/mL (≈ 22.1 µM)

Question: And the MIC (Proteus rett. C24)?
Answer: 16 µg/mL (≈ 44.3 µM)

Question: What about the MIC (Proteus stu PR33) of the same compound?
Answer: 32 µg/mL (≈ 88.6 µM)

Question: And the MIC (Pseudomonas PS19; [11])?
Answer: 128 µg/mL (≈ 354 µM)

Question: And the MIC (Salmonella 1335)?
Answer: 32 µg/mL (≈ 88.6 µM)

Question: What about the MIC (Salmonella X514) of the same compound?
Answer: 32 µg/mL (≈ 88.6 µM)

Question: What about the MIC (Serratia SE3) of the same compound?
Answer: 16 µg/mL (≈ 44.3 µM)

Question: What about the MIC (Serratia X99) of the same compound?
Answer: 16 µg/mL (≈ 44.3 µM)

Question: And the MIC (Shigella sonnei N9)?
Answer: 64 µg/mL (≈ 177 µM)

Question: What about the MIC [3] of the same compound?
Answer: 0.125 µg/mL (≈ 0.346 µM)

Question: And the MIC [4]?
Answer: 0.25 µg/mL (≈ 0.692 µM)

Question: What about the MIC [5] of the same compound?
Answer: 0.5 µg/mL (≈ 1.38 µM)

Question: And the MIC [6, 13]?
Answer: 0.25 µg/mL (≈ 0.692 µM)

Question: What about the MIC [7] of the same compound?
Answer: 1 µg/mL (≈ 2.77 µM)

Question: What about the MIC [8] of the same compound?
Answer: 0.03 µg/mL (≈ 0.083 µM)

Question: And the MIC (Streptococcus pn PARK)?
Answer: 128 µg/mL (≈ 354 µM)

Question: And the “Minimum Inhibitory Concentration” value (Streptococcus A C203)?
Answer: NG

Question: And the “growth inhibition of Gram-positive bacteria / methicillin-resistant staphylococcus (in words)” value [9]?
Answer: inhibited the in vitro growth of Gram-positive bacteria including the methicillin resistant staphylococci

Question: What about the “growth inhibition of Gram-positive bacteria / methicillin-resistant staphylococcus (in words)” value ([9]; listed as 5'-O-(valinyl)-5-fluorouridine) of the same compound?
Answer: inhibits the growth of methicillin-resistant staphylococcus

Question: What about the “activity against Gram-negative microorganisms (in words)” value [10] of the same compound?
Answer: also active against Gram-negative microorganisms but to a lesser degree

Question: `CC(=O)N(O)CCC[C@H](NC(=O)[C@H](CCCN(O)C(C)=O)NC(=O)[C@@H](N)CCCN(O)C(C)=O)C(=O)N[C@H](C(=O)OC[C@H]1O[C@@H](n2cc(F)c(=O)[nH]c2=O)[C@H](O)[C@@H]1O)C(C)C` [tetrapeptide] (H-[Orn(N5-OH,N5-Ac)][Orn(N5-OH,N5-Ac)][Orn(N5-OH,N5-Ac)]V-X1) was tested. Which “diameter zone of inhibition” value (Candida albicans; 5 nmol) did it give?
Answer: 26 mm

Question: What about the “diameter zone of inhibition” value (Candida albicans; 25 nmol) of the same compound?
Answer: 35 mm

Question: And the “activity against Candida albicans (in words)” value (Candida albicans; in vitro)?
Answer: exhibited activity against Candida albicans
